Source: publication PMC5834492, “Antimycobacterial drug discovery using Mycobacteria-infected amoebae identifies anti-infectives and new molecular targets” (Scientific Reports, 2018)
“Also recorded” adds a separate entry of the source.

What was measured:
M. bovis BCG pMV261-murC = type: cell-based, Mycobacterium bovis BCG
[1] = tested on: M. marinum in A. castellanii; type: cell-based, Mycobacterium marinum
M. marinum luxCDABE = type: cell-based, Mycobacterium marinum
M. marinum GFP = type: cell-based, Mycobacterium marinum; conditions: for M. marinum GFP normalised growth, control=1.00, mean: 10 µM, antibiotic assay; for antibiotic activity in M. marinum growth assay: broth
[2] = tested on: M. marinum in BV2 microglial cells; type: cell-based, Mycobacterium marinum
D. discoideum GFP-ABD = conditions: for D. discoideum GFP-ABD normalised growth, control=1.00, mean: 10 µM
[3] = tested on: M. bovis BCG pMV261 (empty plasmid); type: cell-based, Mycobacterium bovis BCG
Mtb H37Rv in THP-1 = tested on: Mtb H37Rv in THP-1; set-up: method as in Sorrentino et al, 2015; conditions: ref Sorrentino et al, 2015, cited from earlier work; for Intracelullar MIC90 in THP-1: THP1 / Mtb H37Rv infection assay; for Extracellular MIC90/ Inracellular MIC90: ratio
Mtb H37Rv = tested on: Mtb H37Rv; set-up: method as in Sorrentino et al, 2015; conditions: ref Sorrentino et al, 2015; cited from earlier work
[4] = not told; cited from earlier work
M. bovis BCG pMV261-fbpA = type: cell-based, Mycobacterium bovis BCG

Compound	Intracelullar MIC90 in THP-1 (Mtb H37Rv in THP-1)	Extracellular MIC90/ Inracellular MIC90 (Mtb H37Rv in THP-1)	Extracellular MIC90 (Mtb H37Rv)	Intracellular infection assays: A. castellanii / M. marinum [1]	Antibiotic assays: M. marinum luxCDABE (M. marinum luxCDABE)	Intracellular infection assays: BV2 / M. marinum [2]	Growth inhibition / Cytotoxicity assays: D. discoideum GFP-ABD (D. discoideum GFP-ABD)	Growth inhibition / Cytotoxicity assays: BV2 cells (BV2 cells)	further results
CC(C)OC(=O)COc1ccc(-c2cnc(N(C)CCc3ccncc3)nc2)cc1 [GSK831784A]									pIC50 Shift (1) (M. bovis BCG pMV261-murC): 0.32; pIC50 Shift (2) (M. bovis BCG pMV261-murC): 0.42; pXC50(1) (M. bovis BCG pMV261-murC): 4.64; pXC50(2) (M. bovis BCG pMV261-murC): 4.55; A. castellanii / M. marinum normalised growth, control=1.00, mean ([1]; 10 µM): 0.20; Hits A. castellanii/M. marinum assay True/False ([1]; 10 µM): TRUE; M. marinum luxCDABE normalised growth, control = 1.00, mean (M. marinum luxCDABE; 10 µM): 0,00; M. marinum luxCDABE normalised growth, control=1.00, mean (M. marinum luxCDABE; 10 µM): 0.00; M. marinum GFP normalised growth, control=1.00, mean (M. marinum GFP): 0.10; antibiotic activity in M. marinum growth assay (M. marinum GFP): strong antibiotic activity; IC50 [2]: 15 µM; BV2 / M. marinum normalised growth, control=1.00, mean ([2]; 10 µM): 0.97; hit in BV2/M. marinum assay True/False ([2]; 10 µM): FALSE; D. discoideum GFP-ABD normalised growth, control=1.00, mean (D. discoideum GFP-ABD): 0.98; pXC50(1) [3]: 4.96; pXC50(2) [3]: 4.97
Cc1ccc2nc(C)c(-c3ccn(Cc4ccccc4)n3)n2c1 [GSK847920A]	1.85 µM	2.7	5 µM						pIC50 Shift (1) (M. bovis BCG pMV261-murC): 0.49; pIC50 Shift (2) (M. bovis BCG pMV261-murC): 0.54; pXC50(1) (M. bovis BCG pMV261-murC): 5.45; pXC50(2) (M. bovis BCG pMV261-murC): 5.45; A. castellanii / M. marinum normalised growth, control=1.00, mean ([1]; 10 µM): 1.17; M. marinum luxCDABE normalised growth, control=1.00, mean (M. marinum luxCDABE; 10 µM): 0.11; M. marinum GFP normalised growth, control=1.00, mean (M. marinum GFP): 0.36; antibiotic activity in M. marinum growth assay (M. marinum GFP): strong antibiotic activity; IC50 [2]: 3.29 µM; BV2 / M. marinum normalised growth, control=1.00, mean ([2]; 10 µM): 0.95; D. discoideum GFP-ABD normalised growth, control=1.00, mean (D. discoideum GFP-ABD): 0.34; pXC50(1) [3]: 5.94; pXC50(2) [3]: 5.99
O=C(CCC1CCCCC1)Nc1cccc(-c2nnc(-c3ccco3)o2)c1 [GSK937213A]	0.61 µM	10	6.1 µM	1.06	0.00	1.14	1.19	False	
NCC[C@H](O)C(=O)N[C@@H]1C[C@H](N)[C@@H](O[C@H]2O[C@H](CN)[C@@H](O)[C@H](O)[C@H]2O)[C@H](O)[C@H]1O[C@H]1O[C@H](CO)[C@@H](O)[C@H](N)[C@H]1O [amikacin, reference compound]									cellular permeability [4]: low cellular permeability; effect of amikacin on intracellular mycobacteria growth [2]: has an effect on mycobacteria growth inside BV2 cells; also recorded: exerts a significant effect on intracellular bacteria
Cc1cc(NCCc2ccccc2)nc(/N=C(\N)Nc2ccc(Cl)cc2)n1 [CCI7967]	0.61 µM	3.93	2.4 µM	1.16	0.00	1.01	0.89	False	
O=C(Nc1nnc(-c2ccc(Cl)cc2)o1)c1cccc(C(F)(F)F)c1 [GSK130506A]	16.65 µM	0.34	5.6 µM	1.05	0.00	1.46	1.07	False	
CCc1nc2ccccc2n1CC(O)COc1cc(C)ccc1Cl (stereo not shown) [GSK889423A]	5.55 µM	1.58	8.8 µM	1.18	0.00	1.41	0.94	False	
COc1ccc(CC(=O)Nc2c(-c3cccs3)nc3cc(C)ccn23)cc1 [GSK1857145A]	5.55 µM	1.22	6.8 µM	1.19	1.00	1.12	0.93	False	
Cc1ccc(CNC(=O)c2cnn3c2NC(c2ccc(C)cc2)CC3C(F)F)cc1 (stereo not shown) [GSK1180781A]	0.21 µM	5.71	1.2 µM	1.14	1.00	1.23	1.05	False	
CC(C)(C)c1ccc(-c2nnc(SCC(=O)OC3CCCCC3)o2)cc1 [GW859039X]	5.55 µM	0.31	1.7 µM	0.90	0.075	1.04	0.68	False	antibiotic activity in M. marinum growth assay (M. marinum GFP): strong antibiotic activity; pXC50(1) [3]: 5.03; pXC50(2) [3]: 5.04; pIC50 Shift (1) (M. bovis BCG pMV261-fbpA): 0.43; pIC50 Shift (2) (M. bovis BCG pMV261-fbpA): 0.42; pXC50(1) (M. bovis BCG pMV261-fbpA): 4.6; pXC50(2) (M. bovis BCG pMV261-fbpA): 4.62
O=C(CCSc1ccc(Cl)cc1)Nc1nc(-c2ccccn2)cs1 [GSK920703A]	5.55 µM	1.51	8.4 µM	1.34	0.13	1.24	0.48	False	
CCCCc1ccc(C(=O)Nc2nccc3ccccc23)nc1 [SB-746177]	1.85 µM	4.97	9.2 µM	1.01	0.00	1.27	0.92	False	
Cc1cccc(-c2nc(Nc3ccncn3)c3c(C)csc3n2)n1 [GSK163574A]	50 µM	0.01	0.3 µM	1.13	0.00	1.25	0.81	False	
